Patent publication US20030109532A1, “Modulators of dopamine neurotransmission” (priority 2002, published 2003)
Counter-ions that a name gives are not always drawn.

Key:
rats = test: In vivo test: behavior, spontaneous motor activity (distance traveled in motility meter); design: species or system rat; conditions: n=4; for motoractivity in the behavioral assay: 100 μmol/kg s.c., 0-60 min
[1] = test system: 3,4-dihydroxyphenylacetic acid (DOPAC) in the striatum; test: In vivo test: neurochemistry, 3,4-dihydroxyphenylacetic acid (DOPAC) in the striatum; design: species or system rat; conditions: 100 μmol/kg s.c., n=4
Text: (§1) In vivo Test: Neurochemistry
(§2) After the behavioral activity sessions the rats were decapitated and their brains rapidly taken out and put on an ice-cold petri-dish. The limbic forebrain, the striatum, the frontal cortex and the remaining hemispheral parts of each rat were dissected and frozen. Each brain part was subsequently analyzed with respect to its content of monoamines and their metabolites. The monoaminergic indices analyzed were dopamine (DA), 3,4-dihydroxyphenylacetic acid (DOPAC), homovanillic acid (HVA), 3-methoxytyramine (3-MT), serotonin (5-HT), 5-hydroxyindole acetic acid (5-HIAA), and noradrenaline (NA). All monoaminergic indices in the dissected tissue were analyzed by means of HPLC with electrochemical detection as described by Svensson K, et al., 1986, NaunynSchmiedeberg's Arch Pharmacol 334: 234-245 and references cited therein.

[2] = test system: serotonin in the striatum; test: In vivo test: neurochemistry, serotonin (5-HT) in the striatum; design: species or system rat; conditions: n=4
Text: as §1, §2

[3] = test system: rats pretreated with d-amphetamine; test: In vivo test: behavior, d-amphetamine induced hyperactivity; design: species or system rat; conditions: 100 μmol/kg s.c.; d-amphetamine 1.5 mg/kg s.c. pretreatment, n=4

| SMILES | motoractivity in the behavioral assay (rats) | 3,4-dihydroxy-phenylacetic acid in the striatum [1] | melting point | other results |
| --- | --- | --- | --- | --- |
| CCCN1[C@H](C)CN(c2cccc(C(F)(F)F)c2)C[C@@H]1C [Example 2, cis-2,6-Dimethyl-1-propyl-4-(3-trifluoro-methyl-phenyl)-piperazine] | 3619±483 cm/60 min | 1388±60 ng/g tissue |  | serotonin in the striatum ([2]; 100 μmol/kg s.c.): 419±23 ng/g tissue |
| CCCN1[C@H](C)CN(c2cccc(S(C)(=O)=O)c2)C[C@@H]1C (as salt: HCl) [Example 3, cis-4-(3-Methanesulfonyl-phenyl)-2,6-dimethyl-1-propyl-piperazine] |  |  | 233 °C |  |
| CCCN1CC[C@H](c2cccc(S(C)(=O)=O)c2)[C@H](C)C1 (relative stereo) (as salt: HCl) [Example 4, cis-4-(3-Methanesulfonyl-phenyl)-3-methyl-1-propyl-piperidine] |  |  | 197 °C |  |
| CCCN1CC[C@H](c2cccc(S(C)(=O)=O)c2)[C@H](C)C1 (relative stereo) [Example 4, cis-4-(3-Methanesulfonyl-phenyl)-3-methyl-1-propyl-piperidine] | 4948±577 cm/60 min | 1884±98 ng/g tissue |  |  |
| CCCN1CCN(c2cccc(C(F)(F)F)c2)CC1 [1-propyl-4-(3-triflouro-methyl-phenyl)-piperazine, reference compound] |  |  |  | motoractivity in the behavioral assay (behavioral inhibition) (rats; 50 μmol/kg s.c.): 271±137 cm/60 min; serotonin in the striatum ([2]; 50 μmol/kg s.c.): 308±18 ng/g tissue |
| CCCN1[C@H](C)CN(c2cccc(S(C)(=O)=O)c2)C[C@@H]1C [Example 3, cis-4-(3-Methanesulfonyl-phenyl)-2,6-dimethyl-1-propyl-piperazine] |  | 3140±169 ng/g tissue |  | motor activity (rats; 100 μmol/kg, 30-60 min post injection): 253±73 cm/30 min; d-amphetamine induced hyperactivity [3]: 2492±530 cm/60 min |
